The results in this text go back to patent US9738655B2, “Tetrahydroisoquinolines containing substituted azoles as factor XIa inhibitors” (BRISTOL-MYERS SQUIBB COMPANY, priority 2013, dated 2017).

For orientation: Ki means a dissociation constant, usually derived from enzyme kinetics or from competition with a known ligand.

Where a name gives a salt, the structure may show the parent alone. Read-outs that look alike come from different tables or passages of the source.

In assay [1] the target is purified human plasma kallikrein (Homo sapiens (Human), UniProt P03952). As to the kind of experiment: Plasma kallikrein enzyme inhibition assay (chromogenic substrate S-2302). The format is biochemical.
The target in assay [2] is purified human Factor XIa (Homo sapiens (Human), UniProt P03951). Kind of assay: Factor XIa enzyme inhibition assay (chromogenic substrate S-2366).
Protocol: The effectiveness of compounds of the present invention as inhibitors of the coagulation Factors XIa, VIIa, IXa, Xa, XIIa, plasma kallikrein or thrombin, can be determined using a relevant purified serine protease, respectively, and an appropriate synthetic substrate. The rate of hydrolysis of the chromogenic or fluorogenic substrate by the relevant serine protease was measured both in the absence and presence of compounds of the present invention. […] A decrease in the rate of absorbance or fluorescence change in the presence of inhibitor is indicative of enzyme inhibition. […] The results of this assay are expressed as the inhibitory constant, Ki.
Values of Ki were determined by allowing the protease to react with the substrate in the presence of the inhibitor.
The mark [3] stands for this setting: read-out: Factor XIa Ki, measured at 25° C.
Where [4] appears, read: measured at 25° C. (no asterisk).

purified human Factor XIa, sequence (P03951 388-625): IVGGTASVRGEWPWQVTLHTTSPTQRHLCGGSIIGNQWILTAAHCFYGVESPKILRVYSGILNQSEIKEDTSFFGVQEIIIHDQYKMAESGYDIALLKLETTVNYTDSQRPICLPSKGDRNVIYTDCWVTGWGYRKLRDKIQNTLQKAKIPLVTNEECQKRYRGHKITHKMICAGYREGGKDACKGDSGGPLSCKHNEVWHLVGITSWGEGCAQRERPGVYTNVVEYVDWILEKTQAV
purified human Factor XIa, sequence (P03951 19-387 partner): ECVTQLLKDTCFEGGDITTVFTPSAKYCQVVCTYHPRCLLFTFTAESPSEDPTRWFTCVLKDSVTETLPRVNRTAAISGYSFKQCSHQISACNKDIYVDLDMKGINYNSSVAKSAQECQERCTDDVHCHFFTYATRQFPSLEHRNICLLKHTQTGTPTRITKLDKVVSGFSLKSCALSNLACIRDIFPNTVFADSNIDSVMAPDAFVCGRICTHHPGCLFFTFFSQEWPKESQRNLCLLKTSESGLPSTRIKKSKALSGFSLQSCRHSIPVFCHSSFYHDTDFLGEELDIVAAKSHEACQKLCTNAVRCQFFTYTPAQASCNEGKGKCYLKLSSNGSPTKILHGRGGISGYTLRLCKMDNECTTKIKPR
purified human plasma kallikrein, sequence (P03952 391-638): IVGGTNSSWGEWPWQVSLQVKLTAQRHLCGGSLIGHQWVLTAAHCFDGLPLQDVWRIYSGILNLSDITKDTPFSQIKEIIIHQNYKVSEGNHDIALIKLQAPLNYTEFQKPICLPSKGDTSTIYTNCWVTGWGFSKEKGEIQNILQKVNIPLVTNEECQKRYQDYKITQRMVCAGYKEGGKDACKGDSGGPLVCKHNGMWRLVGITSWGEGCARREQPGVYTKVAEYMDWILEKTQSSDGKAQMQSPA
purified human plasma kallikrein, sequence (P03952 20-390 partner): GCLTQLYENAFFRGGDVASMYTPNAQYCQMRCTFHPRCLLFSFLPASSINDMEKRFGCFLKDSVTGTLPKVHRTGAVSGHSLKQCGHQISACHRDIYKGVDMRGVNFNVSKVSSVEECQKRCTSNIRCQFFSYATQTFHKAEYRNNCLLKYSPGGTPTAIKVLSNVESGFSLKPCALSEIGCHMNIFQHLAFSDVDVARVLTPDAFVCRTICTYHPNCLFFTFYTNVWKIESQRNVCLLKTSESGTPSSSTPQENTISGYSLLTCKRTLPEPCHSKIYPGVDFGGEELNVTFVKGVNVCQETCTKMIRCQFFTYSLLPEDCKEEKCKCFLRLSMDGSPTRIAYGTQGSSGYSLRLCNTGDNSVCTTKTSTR

Consider `COC1CCN(c2cccc3c2CCN(C(=O)[C@H]2CC(c4cccc(Cl)c4F)=NO2)[C@@H]3C(=O)Nc2cccnc2)CC1` (single isomer, unassigned) [Example 241, TFA salt], for which the Ki in assay [1] (measured at 37° C. (*)) came to 66.7 nM; in assay [2], 8.78 nM.

On to `O=C(Nc1ccc2ncccc2c1)[C@H]1c2cccc(-c3cncnc3)c2CCN1C(=O)c1cn(-c2cccc(Cl)c2F)nn1` (stereo in doubt) [Example 125, 2-(1-(3-Chloro-2-fluorophenyl)-1H-1,2,3-triazole-4-carbonyl)-5-(pyrimidin-5-yl)-N-(quinolin-6-yl)-1,2,3,4-tetrahydroisoquinoline-1-carboxamide, TFA salt], for which the Ki in assay [1] (measured at 37° C. (*)) turned out to be 54.1 nM; in assay [2] (setting [3]) it was 9.62 nM.

For `CN(C)CCNC(=O)c1ccc(-c2cccc3c2CCN(C(=O)c2cn(-c4cccc(Cl)c4F)nn2)[C@@H]3C(=O)Nc2ccc(C(=O)O)cc2)cc1` [Example 10, (S)-4-(2-(1-(3-Chloro-2-fluorophenyl)-1H-1,2,3-triazole-4-carbonyl)-5-(4-((2-(dimethylamino)ethyl)carbamoyl)phenyl)-1,2,3,4-tetrahydroisoquinoline-1-carboxamido)benzoic acid, TFA salt], the Ki in assay [1] (setting [4]) was 1.08 nM; in assay [2] (setting [3]) it was below 5 nM.

Consider `O=C(Nc1ccc(-c2ncc[nH]2)cc1)[C@@H]1c2cccc(-c3cncnc3)c2CCN1C(=O)[C@H]1CC(c2cccc(Cl)c2F)=NO1` [Example 134, (S)-N-(4-(1H-Imidazol-2-yl)phenyl)-2-((R)-3-(3-chloro-2-fluorophenyl)-4,5-dihydroisoxazole-5-carbonyl)-5-(pyrimidin-5-yl)-1,2,3,4-tetrahydroisoquinoline-1-carboxamide, TFA salt], for which the Ki in assay [1] (measured at 37° C. (*)) is 24.4 nM; in assay [2] (setting [3]), below 5 nM.

Turning to `COC(=O)c1ccc(NC(=O)[C@@H]2c3cccc(-c4cncnc4)c3CCN2C(=O)c2cn(-c3cccc(Cl)c3F)nn2)cc1` [Example 26, (S)-Methyl 4-(2-(1-(3-chloro-2-fluorophenyl)-1H-1,2,3-triazole-4-carbonyl)-5-(pyrimidin-5-yl)-1,2,3,4-tetrahydroisoquinoline-1-carboxamido)benzoate], the Ki in assay [1] (measured at 37° C. (*)) was 62 nM; in assay [2] (setting [3]), 7.07 nM.

Regarding `Cc1c(C(=O)N2CCc3c(-c4ccc(C(=O)NCCN(C)C)cc4)cccc3C2C(=O)Nc2ccc(C(=O)O)cc2)nnn1-c1cccc(Cl)c1F` (stereo not drawn) [Example 7, 4-(2-(1-(3-Chloro-2-fluorophenyl)-5-methyl-1H-1,2,3-triazole-4-carbonyl)-5-(4-((2-(dimethylamino)ethyl)carbamoyl)phenyl)-1,2,3,4-tetrahydroisoquinoline-1-carboxamido)benzoic acid, TFA salt], the inhibition constant Ki is 29.9 nM in assay [1] (setting [4]) and below 5 nM in assay [2] (setting [3]).

Consider `O=C(O)c1ccc(NC(=O)C2c3cccc(N4CCC(N5CCCC5=O)CC4)c3CCN2C(=O)c2cn(-c3cccc(Cl)c3F)cn2)cc1` (stereo not drawn) [Example 92, 4-(2-(1-(3-Chloro-2-fluorophenyl)-1H-imidazole-4-carbonyl)-5-(4-(2-oxopyrrolidin-1-yl)piperidin-1-yl)-1,2,3,4-tetrahydroisoquinoline-1-carboxamido)benzoic acid, TFA salt], for which the Ki is 5.6 nM in assay [1] (setting [4]) and below 5 nM in assay [2] (setting [3]).

For `COC(=O)[C@H]1CC[C@@H](NC(=O)C2c3cccc(-c4cncnc4)c3CCN2C(=O)c2cn(-c3cccc(Cl)c3F)nn2)CC1` (stereo partly drawn) [Example 132, (1R,4R)-methyl 4-(2-(1-(3-chloro-2-fluorophenyl)-1H-1,2,3-triazole-4-carbonyl)-5-(pyrimidin-5-yl)-1,2,3,4-tetrahydroisoquinoline-1-carboxamido) cyclohexanecarboxylate], the values for the Ki in assay [1] (measured at 37° C. (*)) and in assay [2] (setting [3]) were 1620 nM and 124 nM, respectively.

As for `CN1CCN(c2cccc3c2CCN(C(=O)c2cncc(-c4ccccc4)c2)C3C(=O)Nc2ccc(C(=O)O)cc2)CC1` (stereo not drawn) [Example 321, 4-(5-(4-Methylpiperazin-1-yl)-2-(5-phenylnicotinoyl)-1,2,3,4-tetrahydroisoquinoline-1-carboxamido)benzoic acid], the results for the inhibition constant (Ki) in assay [1] (setting [4]) and in assay [2] (setting [3]) were 177 nM and 236 nM, respectively.

As for `Nc1ccc(-c2cccc3c2CCN(C(=O)c2cn(-c4cccc(Cl)c4F)nn2)C3C(=O)Nc2ccc(C(=O)O)cc2)cn1` (stereo not drawn) [Example 39, 4-(5-(6-aminopyridin-3-yl)-2-(1-(3-chloro-2-fluorophenyl)-1H-1,2,3-triazole-4-carbonyl)-1,2,3,4-tetrahydroisoquinoline-1-carboxamido)benzoic acid, bis-TFA salt], the results for the inhibitory constant (Ki) in assay [1] (setting [4]) and in assay [2] (setting [3]) were 2.63 nM and below 5 nM, respectively.

For `CN(C)C1CCN(c2cccc3c2CCN(C(=O)c2cn(-c4cccc(Cl)c4F)nn2)[C@H]3C(=O)Nc2ccc(-c3cn[nH]c3)cc2)CC1` [Example 103, (R)-N-(4-(1H-Pyrazol-4-yl)phenyl)-2-(1-(3-chloro-2-fluorophenyl)-1H-1,2,3-triazole-4-carbonyl)-5-(4-(dimethylamino)piperidin-1-yl)-1,2,3,4-tetrahydroisoquinoline-1-carboxamide, bis-TFA salt], the Ki amounted to 34 nM in assay [1] (setting [4]) and 17.9 nM in assay [2] (setting [3]).

Turning to `COC1CCN(c2cccc3c2CCN(C(=O)[C@H]2CC(c4cccc(Cl)c4F)=NO2)[C@H]3C(=O)Nc2cccnc2)CC1` (single isomer, unassigned) [Example 242, TFA salt], the results for the inhibition constant (Ki) in assay [1] (measured at 37° C. (*)) and in assay [2] were 1230 nM and 188 nM, respectively.

With `CN(C)C(=O)C1CCN(c2cccc3c2CCN(C(=O)c2cn(-c4cccc(Cl)c4F)cn2)[C@H]3C(=O)Nc2ccc(C(=O)O)cc2)CC1` (single isomer, unassigned) [Example 62, TFA salt], the Ki in assay [1] (setting [4]) is 399 nM; in assay [2] (setting [3]), 74.6 nM.

`COC1CCN(c2cccc3c2CCN(C(=O)[C@H]2CC(c4cccc(Cl)c4F)=NO2)[C@@H]3C(=O)Nc2cccc(F)c2)CC1` (single isomer, unassigned) [Example 237, TFA salt]: the Ki in assay [1] (measured at 37° C. (*)) was determined as 130 nM; in assay [2], 15.3 nM.

With `O=C(O)c1ccc(NC(=O)[C@@H]2c3cccc(N4CCC(N5CCCC5=O)CC4)c3CCN2C(=O)[C@H]2CC(c3cccc(Cl)c3F)=NO2)cc1` (single isomer, unassigned) [Example 207, TFA salt], the Ki was 30.9 nM in assay [1] (setting [4]) and below 5 nM in assay [2].

In the case of `O=C(O)c1ccc(NC(=O)C2c3cccc(OC4CCNCC4)c3CCN2C(=O)c2cn(-c3cccc(Cl)c3F)nn2)cc1` (stereo not drawn) [Example 112, 4-(2-(1-(3-Chloro-2-fluorophenyl)-1H-1,2,3-triazole-4-carbonyl)-5-(piperidin-4-yloxy)-1,2,3,4-tetrahydroisoquinoline-1-carboxamido)benzoic acid, TFA salt], the Ki was 3.16 nM in assay [1] (setting [4]) and below 5 nM in assay [2] (setting [3]).

On to `COC1CCN(c2cccc3c2CCN(C(=O)[C@H]2CC(c4cccc(Cl)c4F)=NO2)[C@@H]3C(=O)Nc2ccccc2F)CC1` (single isomer, unassigned) [Example 235, TFA salt], for which the figures for the Ki in assay [1] (measured at 37° C. (*)) and in assay [2] were 478 nM and 23.2 nM, respectively.

`CN(C)C(=O)C1CCN(c2cccc3c2CCN(C(=O)c2cn(-c4cccc(Cl)c4F)nn2)C3C(=O)Nc2ccc(C(=O)O)cc2)CC1` (stereo not drawn) [Example 56, 4-(2-(1-(3-chloro-2-fluorophenyl)-1H-1,2,3-triazole-4-carbonyl)-5-(4-(dimethylcarbamoyl)piperidin-1-yl)-1,2,3,4-tetrahydroisoquinoline-1-carboxamido)benzoic acid, TFA salt]: the Ki in assay [1] (setting [4]) is 5.6 nM; in assay [2] (setting [3]), below 5 nM.
